The values that follow come from US6300327A, “Compositions and methods for potentiation of neurotrophin activity” (The University of Southern California, priority 1997, dated 2001).

The test system of series [1] is phosphorylation of selected proteins. To be noted: cited from earlier work.
In series [2] the test system is PC12 pheochromocytoma cells. To be noted: into neuron-like cells; cited from earlier work.
Series [3] is described as follows: Cytotoxicity in vitro. The format is cell-based.
For series [4], the system named is forebrain cholinergic neurons (cultures of rat basal forebrain). Put plainly: ChAT activity in primary cultures of fetal rat basal forebrain (septal) cholinergic neurons treated with neurotrophins and K-252 compounds. The format is cell-based. To be noted: for NT-3 potentiation (ChAT, cholinergic neurons): 200 ng/ml NT-3 and increasing concentrations of compound (FIG. 6); for ED50, stimulation of ChAT activity: mean±S.E., n=8. The method, then: Recombinant human NGF (rhNGF), BDNF (rhBDNF), and NT-3 (rhNT-3) and K-252b were added to primary cultures of fetal rat brain neurons containing either forebrain cholinergic or midbrain dopaminergic neurons. A broad range of concentrations of K-252b were tested in presence of 50 ng/ml rhNGF, 200 ng/ml rhBDNF and 1 μg/ml rhNT-3, growth factor concentrations producing maximal trophic actions on cholinergic neurons. The trophic action was monitored by measuring the activity of ChAT, a parameter reflecting both survival and transmitter-specific differentiation of cholinergic cells.
(§1) Primary cultures of fetal rat brain septal and mesencephalic cells were prepared in a heretofore known manner [Knusel et al., supra]. Briefly, defined areas were dissected from fetal rat brains (Wistar, E15-16, Charles River, Mass.). The septal area contained the cholinergic neurons from septum, diagonal band of Broca and nucleus basalis. The ventral mesencephalon containing the dopaminergic neurons of the substantia nigra and the ventral tegmental area was dissected and dissociated mechanically. The cells were plated in 16 mm multiwell plates precoated with polyethyleneimine (1 mg/ml, 37° C., overnight), containing 0.5 ml modified L-15 medium supplemented with 5% heat inactivated horse serum and 0.5% heat inactivated fetal calf serum. Modified L-15 was prepared [Knusel et al., "Selective and Nonselective Stimulation of Central Cholinergic and dopaminergic Development in vitro by Nerve Growth Factor, Basic Fibroblast Growth Factor, Epidermal Growth Factor, Insulin and the Insulin-like Growth Factors I and II," J. Neurosci. 10:558-570 (1990)] by adding various amino acids, vitamins, antibiotics, glucose and NaHCO3 to Leibovitz's L-15 medium (Gibco, Grand Island, N.Y.). Plating densities were 4×10^5 cells/cm^2 for basal forebrain cultures and 3×10^5 cells/cm^2 for mesencephalic cultures. Of these cells, 0.5 to 1% were cholinergic or dopaminergic, respectively. Growth factors were typically added on the second day of culture and the cells were grown for 5 or more days. For ChAT assays tissue was homogenized in 250 μl of 50 mM Tris-HCl buffer, pH 6.0 with 0.3% Triton X-100. [1-^14 C]acetylcoenzyme A (NEN) concentration was 20 μM and specific activity 4.09 Ci/mol. To measure dopamine uptake, cultures were preincubated for 5 min at 37° C. with 250 μl incubation solution (5 mM glucose, 1 mM ascorbic acid in PBS) containing 1 mM pargyline. [^3 H]dopamine (37 Ci/mmol) was then added to give a final concentration of 50 nM and the cultures were incubated for another 15 minutes. Blanks were obtained by incubating cells at 0° C.
FIG. 1 illustrates levels of ChAT activity in cultures of rat basal forebrain treated with rhNGF, rhBDNF, or rhNT- and K-252b. Growth factors were added on the second day of culture and the cells were grown for 5 days. Growth factor concentrations producing maximal elevations of ChAT activity were used. In FIG. 1, .largecircle. represents the control; .quadrature., 50 ng/ml rhNGF; Δ, 200 ng/ml rhBDNF; and .tangle-soliddn., 1 μg/ml rhNT-3. The ChAT stimulation mediated by all three neurotrophins was inhibited by K-252b at concentrations above 200 nM. […] N=4 per data point. Error bars represent SEMs and were omitted where they would have appeared smaller than the symbol.
These compounds were accordingly tested for possible NT-3 potentiation at lower concentrations than necessary for NGF inhibition. Culture conditions were as described in Example 1. Cultures were untreated (controls) or treated with 200 ng/ml NT-3 and increasing concentrations of the inhibitors. The findings are shown in FIG. 6, in which "Stau", "K2a", "K2b", "K57", "K58", "K59" represent, respectively, staurosporine, K-252a, K-252b, KT5720, KT5823, and KT5296. […] Staurosporine and KT5296 were ineffective.

Series [5] relates to PC12 cells. To be noted: cited from earlier work.
Series [6] concerns midbrain dopaminergic neurons (cultures of ventral mesencephalon). Put plainly: Dopamine uptake in primary cultures of fetal rat ventral mesencephalon. The format is cell-based. To be noted: for trophic action on dopaminergic neurons (dopamine uptake): growth factor alone. The method, then:
as §1
In Table 1, dopamine uptake is given as fmol/min/culture dish. Cultures were grown in 24-well plates for 7 days in L-15 medium with 5% horse and 0.5% fetal bovine serum and treated with growth factors and K-252b from the second day of culture. rhBDNF, 200 ng/ml; des-IGF-1, 1 μg/ml; n=4; *different from respective control group, p <0.01 (Student's t-test). The apparent difference between control cultures grown in presence and absence of K-252b was statistically not significant. The experiment shown is a representative case of a total of 5 independent experiments.

For series [7], the system named is trk. Put plainly: trk tyrosine phosphorylation in PC12 cells (immunoprecipitation, anti-phosphotyrosine immunoblot). The format is cell-based. The method, then:
To measure the status of trk tyrosine phosphorylation, PC12 cells were lysed and immunoprecipitated with anti-trk serum. The trk proteins were subjected to 7.5% SDS-PAGE and analyzed by immunoblotting with anti-phosphotyrosine antibodies as described in detail in the literature [Kaplan, D. R. et al., "PDGF beta receptor stimulates tyrosine phosphorylation of GAP and association of GAP with a signaling complex," Cell 61:125-133 (1990)]. Tyrosine phosphorylation of cellular proteins was assayed by probing Western blots of lysates of PC12 cells incubated with K-252b and NT-3 or NGF with anti-phosphotyrosine antibodies. Phospholipase C gammal was identified in these blots as described elsewhere [Vetter, M.L. et al., "Nerve growth factor rapidly stimulates tyrosine phosphorylation of phospholipase C-gammal by a kinase activity associated with the product of trk protooncogene," Proc. Natl Acad. Sci. USA 88:5650-5654 (1991)].
(§2) Experiments on PC12 cells confirmed observations made on primary neuron cultures. Treatment with K-252b stimulated NT-3 induced neurite outgrowth and trk tyrosine phosphorylation in PC12 cells while inhibiting NGF induced effects. PC12 cells were incubated for 48 hours with K-252b (50 nM) and NT-3 or NGF (50 ng/ml). FIG. 4A illustrates the % cells with neurites after 48 hours incubation. Neurites were scored if they were a length of one cell body or more. PC12 cells were subsequently lysed and immunoprecipitated with anti-trk serum. trk proteins were subjected to SDS-PAGE and analyzed by immunoblotting with anti-phosphotyrosine antibodies (FIG. 4B). Lane 1, NT-3 +K-252b; lane 2, NT-3; lane 3, NGF +K-252b; lane 4, NGF. For FIG. 4C, PC12 cells were incubated for 1 hour in K-252b (50 nM or 10 μM) and with NT-3 or NGF for 5 minutes prior to lysis; other methods were the same as described for FIG. 4B. Lane 1, NT-3+10 μM K-252b; lane 2, NT-3±50 nM K-252b; lane 3, NT-3; lane 4, NGF+10 μM K-252b; lane 5, NGF+50 nM K-252b; lane 6, NGF; lane 7, untreated control.
In general terms: Immunoblotting shows a protein as a band on a membrane.

Series [8] concerns chick dorsal root ganglia neurons (DRG). Put plainly: Survival of dissociated chick DRG neurons (embryonic day 9). The format is cell-based. Particulars: growth factor alone, embryonic day 9 DRG cultures. The method, then:
DRGs of embryonic day 9 chicks were dissected and dissociated using enzymatic and mechanical procedures as described in the literature [Rosenthal, A. et al., "Primary Structure and Biological Activity of a Novel Human Neurotrophic Factor," Neuron 4:767-773 (1990)]. 1800 neurons were plated per well in 96-well tissue culture plates pretreated with polyornithine (500 μg/ml) and laminin (10 μg/ml). Cells were incubated for 48 hrs with or without growth factors and the indicated concentrations of K-252b. Phase-bright cells with elaborated neurites 5× the diameter of the cell bodies were then counted.
Similar to the findings obtained in primary cultures of brain cholinergic neurons, low concentration of K-252b (50 nM) potentiated the survival promoting action of a maximally effective concentration of NT-3 (FIG. 3). Survival of dissociated chick DRG neurons in presence of rhNGF (100 ng/ml) or rhNT-3 (100 ng/ml) and K-252b is illustrated in FIG. 3; concentrations on the horizontal axis are for K-252b. The columns represent means +SEMs. […] High concentrations of K-252b (10 μM) inhibited the action of NGF on sensory neurons, as found for cholinergic neurons (FIG. 3).

The subject of series [9] is PC12 cells. Put plainly: Neurite outgrowth of PC12 cells. The format is cell-based. Particulars: NT-3 alone. The protocol: PC12 cells were grown as described earlier [Kaplan et al., 1990, 1991a, b]. To assess effects on neurite outgrowth, cells were incubated for 48 hours with K-252b (50 nM) and NT-3 or NGF (50 ng/ml). Neurites were scored if they were a length of one cell body or more.
as §2

In the case of `COC(=O)C1(O)CC2OC1(C)n1c3ccccc3c3c4c(c5c6ccccc6n2c5c31)C(=O)NC4` (stereo not drawn) [K-252a], the “effect on NGF stimulated phosphorylation of selected proteins” value in series [1] (NGF stimulated) is “inhibits”. The “effect on bFGF or EGF stimulated phosphorylation of selected proteins” value in series [1] (bFGF or EGF stimulated) is “not”. For the same molecule, the “effect on NGF induced morphological transformation of PC12 cells” value in series [2] is “prevents”. Besides, the cytotoxicity entry in series [3] is given as “cytotoxic”. The “NT-3 potentiation (ChAT, cholinergic neurons)” value (shortened to “NT-3 potentiation”) in series [4] is given as “potentiation similar to K-252b”. In addition, the “effect on trophic action of NGF on cholinergic neurons (ChAT)” value in series [4] (relatively high dosages) was “completely and selectively prevent”. Besides, the “effect on binding of 125I-NGF to PC12 cells” value in series [5] is recorded as “does not interfere”.

Take `CCCCCCOC(=O)C1(O)CC2OC1(C)n1c3ccccc3c3c4c(c5c6ccccc6n2c5c31)C(=O)NC4` (stereo not drawn) [KT5720]: the “NT-3 potentiation” value in series [4] was “potentiation similar to K-252b”.

Consider `COC(=O)C1(OC)CC2OC1(C)n1c3ccccc3c3c4c(c5c6ccccc6n2c5c31)C(=O)N(C)C4` (stereo not drawn) [KT5823], for which, in [4], the “NT-3 potentiation” value is “potentiation similar to K-252b”.

Consider `CN[C@@H]1C[C@H]2O[C@@](C)([C@@H]1OC)n1c3ccccc3c3c4c(c5c6ccccc6n2c5c31)C(=O)NC4` [staurosporine, reference compound], for which the cytotoxicity entry in [3] is “cytotoxic”. Moreover, the “NT-3 potentiation” value in series [4] is recorded as “ineffective”. Moreover, the “selective inhibition of NGF” value in series [4] (central cholinergic neurons) is reported as “selectively inhibit NGF”.

Take “NGF: recombinant human nerve growth factor”: the “trophic action on dopaminergic neurons (dopamine uptake)” value (from here on “trophic action on dopaminergic neurons”) in [6] is reported as “not”. Moreover, the “trk tyrosine phosphorylation by growth factor alone” value in series [7] (48 hours) was “strongly stimulated”; in series [7] (acute, 5 minutes), “pronounced increase”. Also, the “promotion of neuronal survival” value in series [8] is reported as “most effective”.

As to NT-3: recombinant human neurotrophin-3, in [6], the “trophic action on dopaminergic neurons” value is given as “not”. The “trk tyrosine phosphorylation by growth factor alone” value is “no phosphorylation was detectable” in series [7] (48 hours) and “minimal” in series [7] (acute, 5 minutes). The “ED50, stimulation of ChAT activity” value in series [4] (NT-3 + 50 nM K-252b) was found to be 0.0143 ± 0.0016 mg/L; in series [4] (NT-3 alone), 0.175 ± 0.0726 mg/L. Further, the “elevation of ChAT activity relative to the NGF-induced elevation” value in series [4] (NT-3 by itself) is on record as “approximately 20%”. In addition, the “promotion of neuronal survival” value in [8] is on record as “moderate effect”. Besides, the “neurite outgrowth induced by growth factor alone” value in [9] is listed as “low levels”.

B1: rhBDNF: recombinant human brain-derived neurotrophic factor (protein, UniProt P23560 19-247, looked up)
Neurotrophic factor BDNF …: APMKEANIRGQGGLAYPGVRTHGTLESVNGPKAGSRGLTSLADTFEHVIEELLDEDQKVRPNEENNKDADLYTSRVMLSSQVPLEPPLLFLLEEYKNYLDAANMSMRVRRHSDPARRGELSVCDSISEWVTAADKKTAVDMSGGTVTVLEKVPVSKGQLKQYFYETKCNPMGYTKEGCRGIDKRHWNSQCRTTQSYVRALTMDSKKRIGWRFIRIDTSCVCTLTIKRGR
For the molecule B1, the “Dopamine uptake, % of Control” value in series [6] (No K-252b, rhBDNF 200 ng/ml or des-IGF-1 1 μg/ml) turned out to be 183%. Also, the “Dopamine uptake, Mean ± SEM” value in [6] (No K-252b, rhBDNF 200 ng/ml or des-IGF-1 1 μg/ml, n=4, 7 days) came to 28.0 ± 0.3 fmol/min/culture dish. In addition, in series [6], the “trophic action on dopaminergic neurons” value is listed as “trophically acts”.
